# Earlier results in article PMC7508583, “Discovery and Preclinical Development of Antigiardiasis Fumagillol Derivatives” (Antimicrobial Agents and Chemotherapy, 2020).
# Tests used:
# [1] = system: G. lamblia WB trophozoites; parameters: method as in PMID 25267663; conditions: proliferation assay; cited from earlier work
# [2] = parameters: method as in earlier work; conditions: degraded from 98% purity; Sanofi; cited from earlier work
compound,measurement,setting,value
"CO[C@@H]1[C@H](OC(=O)/C=C/C=C/C=C/C=C/C(=O)O)CC[C@]2(CO2)[C@H]1[C@@]1(C)O[C@@H]1CC=C(C)C [Fumagillin, reference compound]","MLC, WB strain",[1],0.7 µM
same,purity after storage at 40°C for 2 weeks at ambient humidity,[2],85%
